For test [1], the system named is platelet aggregation induced by human thrombin. The test is described as follows: antiplatelet aggregation assay (rabbits dosed i.v., thrombin-induced aggregation of PRP). It counts as in vivo, Japanese Giant Ear White Rabbits. The procedure:
Platelet aggregation rate was determined by puncture of the central artery of the ear before administration, and then rabbits were randomly divided into 5 groups (4 in each group) based on the platelet aggregation rate and body weight: (1) negative control group (5.12 mg mannitol/kg), (2) high dose TNHH group (4.0 mg/kg), (3) middle dose TNHH group (2.0 mg/kg), (4) low dose TNHH group (1.0 mg/kg), and (5) positive control group (0.1 mg recombinant hirudin/kg). The rabbits in each group were administered at the dose respectively via intravenous injection from the marginal ear vein. Blood samples were collected at the time of 15 min after administration (timed by stopwatch) by puncture of the central artery of the ear to determine the platelet aggregation rate. The method of platelet aggregation rate determination was described as follows: the blood samples were collected by puncture of the central artery of the ear using silicified syringe. 3.8% anticoagulant sodium citrate solution (blood: anticoagulant=9:1) was used. The sample was centrifuged at 200×g for 8 min, and the supernatant obtained was platelet-rich plasma (PRP); then the remaining part was centrifuged again at 2200×g for 10 min, and the supernatant obtained was platelet-poor plasma (PPP). The platelet in PRP was counted as approximate 4.0×10^5/mm^3. According to Born's turbidimetry, a turbidimetric tube with 200 μl PRP and a small magnetic bar was placed in a platelet aggregation instrument and incubated at 37 for 1 min. After calibrating with PPP, the platelet was induced to aggregate by adding inductive human thrombin (0.76 IU/ml) under stirring. The effect of medicaments on the aggregation of platelet was analyzed using the aggregation curve and the maximum aggregation rate obtained from the instrument. The maximum aggregation rate was calculated according to the formula below: […]

The test system of test [2] is blood coagulation system. The test is described as follows: effects on blood coagulation system of New Zealand rabbits in vivo (APTT, PT, TT). Also on record: species or system New Zealand rabbit; PT: unit not given beside the values; APTT / TT: unit not given here. The procedure:
Medicaments were administrated via intravenous injection from marginal ear vein, and 1.8 ml blood was harvested from marginal ear veins at the time of before administration (0 min), and 10 min, 30 min, 60 min, 120 min and 240 min after administration, respectively (the time for injecting is 2 min). 3.2% sodium citrate (9:1) was added for anticoagulation and then mixed and centrifuged at 3000 rpm/min for 3 min. The plasma was send to Department of Clinical Laboratory, Southwest Hospital for determining blood coagulation indexes (APTT, TT and PT) with a full automatic coagulation analyzer and the difference before and after administration was obtained by comparison.

The test system of test [3] is blood coagulation system. The test is described as follows: effects on blood coagulation system of New Zealand rabbits in vitro (APTT, PT, TT). It is filed as biochemical, New Zealand rabbit. The arrangement: PT: unit not given beside the values; APTT / TT: unit not given here. As for the experimental part:
Medicaments were diluted to the following concentrations for use: TNHH: 3.0 mg/ml; 1.0 mg/ml; 333 μg/ml; bivalrudin: 600 μg/ml; 200 μg/ml; 67 μg/ml; Hirudin: 660 μg/ml; 220 μg/ml; 73 μg/ml.
The blood was sampled from six New Zealand rabbits (10×1.8 ml for each one) from marginal ear vein and added into 10 anticoagulation tubes, respectively. 3.2% sodium citrate (9:1) was added for anticoagulation.
20 μl anticoagulated blood was taken from each tube, followed by the addition of 20 μl above diluted medicaments for each tube. 20 μl physiological saline was added into the control tube. Samples were mixed thoroughly and centrifuged at 3000 rpm/min for 3 min, and plasma was send to Department of Clinical Laboratory, Southwest Hospital for determining blood coagulation indexes (APTT, TT and PT) with a full automatic coagulation analyzer and the difference before and after administration was obtained by comparison.

The next test deals with leukocyte adhesion. The test is described as follows: anti-leukocyte adhesion activity, in vitro comparative analysis. Conditions: in vitro. It counts as cell-based.
For the next test, the system named is rabbit whole blood. The test is described as follows: in vitro whole blood anticoagulation assay. The following applies: 0.2 ml heparin sodium 1 mg/ml + 1.0 ml rabbit blood; room temperature 15 min. Also on record: species or system white rabbit. As for the experimental part: TNHH was diluted to 4 mg/ml, 2 mg/ml, 1 mg/ml, 0.5 mg/ml respectively with phosphate buffer solution (10 mmol/L PB, 0.15 mol/L NaCl, pH7.4). Heparin sodium was prepared to 1 mg/ml with the same buffer solution.
Venous blood was taken from marginal ear vein of the rabbit, and rapidly added into 0#-5# tubes. 0.2 ml of the diluted TNHH samples with different concentrations was added into the 1#-4# tubes, respectively. 0.2 ml phosphate buffer solution was added into the 0# tube, which was used as a negative control. 0.2 ml heparin sodium (1 mg/ml) was added into the 5# tube, which was used as a positive control. The reagents were mixed rapidly and stored at room temperature for 15 min for observing the results.

The mark [4] stands for this setting: Hirudin 0.50 mg/kg i.v., 0 min (before administration).
Setting [5] is: Hirudin 0.50 mg/kg i.v., 10 min.
Setting [6] is: Hirudin 0.50 mg/kg i.v., 30 min.
[7] abbreviates: Hirudin 0.50 mg/kg i.v., 60 min.
Where [8] appears, read: Hirudin 0.50 mg/kg i.v., 120 min.
[9] abbreviates: Hirudin 0.50 mg/kg i.v., 240 min.
Setting [10] is: hirudin 0.73 μg/ml in rabbit blood.
The mark [11] stands for this setting: hirudin 2.20 μg/ml in rabbit blood.
Setting [12] is: hirudin 6.60 μg/ml in rabbit blood.
Setting [13] is: Bivalrudin 1.50 mg/kg i.v., 0 min (before administration).
Setting [14] is: Bivalrudin 1.50 mg/kg i.v., 10 min.
[15] abbreviates: Bivalrudin 1.50 mg/kg i.v., 30 min.
[16] abbreviates: Bivalrudin 1.50 mg/kg i.v., 60 min.
[17] abbreviates: Bivalrudin 1.50 mg/kg i.v., 120 min.
[18] abbreviates: Bivalrudin 1.50 mg/kg i.v., 240 min.
[19] abbreviates: bivalrudin 0.67 μg/ml in rabbit blood.
Where [20] appears, read: bivalrudin 2.00 μg/ml in rabbit blood.
Setting [21] is: bivalrudin 6.00 μg/ml in rabbit blood.

In the case of hirudin [reference compound], the “aggregation ratio, Before administration” value in test [1] (hirudin 0.1 mg/kg group) was 58.44 ± 4.42%. Besides, the “aggregation ratio, 15 min after administration” value in test [1] (hirudin 0.1 mg/kg i.v.) amounted to 4.34 ± 6.88%. Moreover, the “aggregation ratio, difference” value in test [1] (hirudin 0.1 mg/kg i.v., before vs 15 min after) is 54.09 ± 8.69 %. In addition, the APTT was 38.02 ± 6.54 in the test on blood coagulation system [2] (setting [4]); 39.97 ± 5.69 in the test with blood coagulation system [2] (setting [5]); 37.72 ± 5.55 with blood coagulation system [2] (setting [6]); 35.02 ± 7.59 with blood coagulation system [2] (setting [7]); 32.05 ± 5.69 with blood coagulation system [2] (setting [8]); 32.07 ± 5.97 in the test with blood coagulation system [2] (setting [9]). For the same molecule, the values for the APTT with blood coagulation system [3] (setting [10]), in the test with blood coagulation system [3] (setting [11]) and in the test with blood coagulation system [3] (setting [12]) were 37.47 ± 6.15, 52.85 ± 15.88 and 58.43 ± 14.36, respectively. For the same molecule, the PT came out at 6.80 ± 0.28 with blood coagulation system [2] (setting [4]); 7.27 ± 0.22 in the test on blood coagulation system [2] (setting [5]); 7.01 ± 0.31 in the test with blood coagulation system [2] (setting [6]); 6.95 ± 0.34 in the test on blood coagulation system [2] (setting [7]); 6.97 ± 0.27 with blood coagulation system [2] (setting [8]); 7.08 ± 0.26 in the test with blood coagulation system [2] (setting [9]). Moreover, the figures for the PT with blood coagulation system [3] (setting [10]), in the test on blood coagulation system [3] (setting [11]) and in the test on blood coagulation system [3] (setting [12]) were 7.33 ± 0.33, 7.87 ± 0.37 and 9.37 ± 1.30, respectively. Besides, the TT worked out at 16.40 ± 1.73 in the test on blood coagulation system [2] (setting [4]); 112.70 in the test with blood coagulation system [2] (setting [5]); 84.93 ± 49.24 with blood coagulation system [2] (setting [6]); 58.17 ± 33.19 in the test with blood coagulation system [2] (setting [7]); 30.42 ± 17.09 in the test on blood coagulation system [2] (setting [8]); 16.30 ± 2.32 with blood coagulation system [2] (setting [9]). In addition, the results for the TT in the test on blood coagulation system [3] (setting [10]), in the test on blood coagulation system [3] (setting [11]) and in the test on blood coagulation system [3] (setting [12]) were 50.40 ± 8.19, 102.77 ± 21.90 and 116.40 ± 8.82, respectively.

Consider “Hirogen: artificial dodecapeptide based on the C-terminal 53rd-64th amino acids of hirudin (NGDFEEIPEEYL) (not fully specified) [reference compound]”, for which the anti-leukocyte adhesion activity result in the test with leukocyte adhesion is recorded as “none”.

For “Bivalrudin: lyophilized powder for injection, manufactured by Chengdu Jiexun Biotechnical Co., Ltd. [reference compound]”, the APTT in the test on blood coagulation system [2] (setting [13]) is on record as 40.7 ± 5.77; in the test with blood coagulation system [2] (setting [14]) it was 45.75 ± 7.20; in the test with blood coagulation system [2] (setting [15]), 39.33 ± 6.62; in the test on blood coagulation system [2] (setting [16]), 38.03 ± 5.55; in the test with blood coagulation system [2] (setting [17]) it was 32.68 ± 4.77; in the test with blood coagulation system [2] (setting [18]), 34.57 ± 5.56. In addition, the values for the APTT with blood coagulation system [3] (setting [19]), with blood coagulation system [3] (setting [20]) and with blood coagulation system [3] (setting [21]) were 35.12 ± 8.04, 40.75 ± 8.71 and 55.00 ± 12.4, respectively. The PT worked out at 6.87 ± 0.21 with blood coagulation system [2] (setting [13]); 8.27 ± 0.67 in the test with blood coagulation system [2] (setting [14]); 7.40 ± 0.27 with blood coagulation system [2] (setting [15]); 7.10 ± 0.15 with blood coagulation system [2] (setting [16]); 7.02 ± 0.12 with blood coagulation system [2] (setting [17]); 6.90 ± 0.18 with blood coagulation system [2] (setting [18]). Also, the PT with blood coagulation system [3] (setting [19]) is reported as 7.83 ± 0.39; in the test on blood coagulation system [3] (setting [20]) it was 8.75 ± 0.52; in the test with blood coagulation system [3] (setting [21]) it was 11.08 ± 1.20. Further, the TT in the test with blood coagulation system [2] (setting [13]) came to 15.28 ± 1.60; with blood coagulation system [2] (setting [14]) it was 71.18 ± 23.37; with blood coagulation system [2] (setting [15]), 36.12 ± 14.00; with blood coagulation system [2] (setting [16]), 26.68 ± 7.30; with blood coagulation system [2] (setting [17]), 15.40 ± 2.16; in the test with blood coagulation system [2] (setting [18]), 15.50 ± 2.36. In addition, the figures for the TT in the test on blood coagulation system [3] (setting [19]), with blood coagulation system [3] (setting [20]) and with blood coagulation system [3] (setting [21]) were 43.22 ± 8.13, 53.67 ± 9.03 and 85.38 ± 23.07, respectively.

Consider heparin sodium [reference compound], for which, in the test on rabbit whole blood, the “Test results (blood coagulation)” value is “not coagulated and Non-”.

B1: TNHH-G15/n3: recombinant TNHH with linker 1 (Gly)15 and linker 2 (GSGG)3: NIF-(Gly)15-FPRP-(GSGG)3-hirugen (protein)
chain: MNEHNLRCPQNGTEMPGFNDSIRLQFLAMHNGYRSKLALGHISITEESESDDDDDFGFLPDFAPRASKMRYLEYDCEAEKSAYMSARNCSDSSSPPEGYDENKYIFENSNNISEAALKAMISWAKEAFNLNKTKEGEGVLYRSNHDISNFANLAWDAREKFGCAVVNCPLGEIDDETNHDGETYATTIHVVCHYPKINKTEGQPIYKVGTPCDDCSEYTKKADNTTSADPVCIPDDGVCFIGSKADYDSKEFYRFRELGGGGGGGGGGGGGGGFPRPGSGGGSGGGSGGNGDFEEIPEEYL
On to B1, for which, in the test on leukocyte adhesion, the anti-leukocyte adhesion activity is on record as 740 Unit/mg.

The record behind these values is patent publication US8361965B2, “Recombinant chimeric protein of neutrophil inhibitory factor and hirugen, and pharmaceutical composition thereof” (Lunan Pharmaceutical Group Corporation, priority 2008, dated 2013).
